The values that follow come from article doi:10.1101/2025.11.21.689824v1, “Fluorescent Biosensor-Guided Engineering of Enzyme Cascades for Electrochemical Applications” (biorxiv, 2025).

Experiment [1] has as its system Single-chain T. thermophilus Fumarase #1 V0 MDH Linkage (T1-V0). To be noted: MDH component; 50 mM NAD+, potassium phosphate buffer; not told whether the fumarase part was inactivated.
Experiment [2] relates to Single-chain T. thermophilus Fumarase #1 H23 MDH Linkage (T1-H23). To be noted: MDH component; 50 mM NAD+, potassium phosphate buffer; not told whether the fumarase part was inactivated.
The subject of experiment [3] is H23 fusion (MDH-scaffolded KKRQKKKRK linker-fumarase). To be noted: MDH component, fumarase part inactivated; 50 mM NAD+, potassium phosphate buffer, 1 nM enzyme.
Experiment [4] concerns V0 fusion (MDH-G4SG4S-fumarase). To be noted: MDH component, fumarase part inactivated; 50 mM NAD+, potassium phosphate buffer, 1 nM enzyme.
The test system of experiment [5] is Single-chain T. thermophilus Fumarase #1 H23 MDH Linkage (T1-H23). To be noted: fumarase component; potassium phosphate buffer, 1 µM enzyme.
In experiment [6] the test system is V0 fusion (MDH-G4SG4S-fumarase). To be noted: fumarase component; potassium phosphate buffer, 20 nM enzyme; free enzyme.
The subject of experiment [7] is T1, Single-chain T. thermophilus Fumarase #1.
T1 construct: gene fumC
The settings on record: potassium phosphate buffer, 1 µM enzyme.

Experiment [8] concerns the target T2, WT Fumarase (FumC, class II) (Escherichia coli, UniProt P05042).
T2 construct: full length, N-terminal leader […]; (His tag, T7 gene 10 leader, Xpress) in pBAD, expressed in E. coli XL1-Blue; homotetramer
T2 sequence (P05042 1-467): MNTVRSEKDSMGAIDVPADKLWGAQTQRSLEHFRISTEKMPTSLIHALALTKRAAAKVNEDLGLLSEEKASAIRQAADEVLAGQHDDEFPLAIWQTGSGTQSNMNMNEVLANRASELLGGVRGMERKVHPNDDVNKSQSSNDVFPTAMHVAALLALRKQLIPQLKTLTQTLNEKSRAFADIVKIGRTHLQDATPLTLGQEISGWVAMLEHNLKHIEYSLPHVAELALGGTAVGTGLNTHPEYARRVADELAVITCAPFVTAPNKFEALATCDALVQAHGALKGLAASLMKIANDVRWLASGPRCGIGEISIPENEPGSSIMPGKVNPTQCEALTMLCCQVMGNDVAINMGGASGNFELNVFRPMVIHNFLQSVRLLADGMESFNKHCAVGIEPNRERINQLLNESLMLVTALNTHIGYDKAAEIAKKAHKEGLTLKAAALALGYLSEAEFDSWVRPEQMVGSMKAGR
The experiment can be described thus: UV absorbance of fumarate, Lineweaver-Burk. The experiment is classed as biochemical. To be noted: potassium phosphate buffer, 20 nM enzyme; free enzyme.

The test system of experiment [9] is H23 fusion (MDH-scaffolded KKRQKKKRK linker-fumarase). To be noted: fumarase component; potassium phosphate buffer, 20 nM enzyme; free enzyme.
Experiment [10] has as its system T3, Single-chain E. coli Fumarase #2.
T3 construct: gene fumC
To be noted: potassium phosphate buffer, 1 µM enzyme.

Experiment [11] concerns Single-chain T. thermophilus Fumarase #1 V0 MDH Linkage (T1-V0). To be noted: fumarase component; potassium phosphate buffer, 1 µM enzyme.
Experiment [12] has as its target H23 fusion (MDH-scaffolded KKRQKKKRK linker-fumarase). Kind of experiment: inhibition of fumarate to NADH cascade, Lineweaver-Burk. Type of experiment: biochemical, Escherichia coli. The settings on record: 500 µM NAD+, fumarate 0.25-8 mM, 100 mM potassium phosphate, 0.5 nM enzyme; competitive at the MDH part; cascade read-out; read-out: apparent Ki.
The target of experiment [13] is V0 fusion (MDH-G4SG4S-fumarase). The description is as above. To be noted: 500 µM NAD+, fumarate 0.25-8 mM, 100 mM potassium phosphate, 0.5 nM enzyme; competitive at the MDH part; cascade read-out; read-out: apparent Ki. Type of experiment: biochemical, Escherichia coli. On the procedure:
inhibition of fumarate to NADH cascade, Lineweaver-Burk on V0 fusion (MDH-G4SG4S-fumarase) | the apparent inhibition constant (Ki) of citrate on the enzymatic cascade was determined

The structures appear in SMILES notation. Read-outs that look alike come from different tables or passages of the source.

In general, Km refers to the substrate concentration at which the rate is half of its maximum. For `O=C(O)C[C@H](O)C(=O)O` [malate], the Km is 1050 ± 390 µM in experiment [1], 1150 ± 370 µM in [2], 1220 ± 60 µM in experiment [3] and 1210 ± 70 µM in experiment [4].
In the case of `O=C(O)/C=C/C(=O)O` [fumarate], the Michaelis-Menten constant (Km) is 972 ± 62 µM in [5]; 759 ± 51 µM in experiment [6]; 809 ± 59 µM in [7]; 443 ± 101 µM in [8]; 934 ± 66 µM in [9]; 758 ± 192 µM in experiment [10]. The Km in experiment [11] was 969 ± 61 µM.
As for `O=C(O)CC(O)(CC(=O)O)C(=O)O` [citrate], the Ki is 8.57 ± 0.71 mM in experiment [12] and 1.65 ± 0.15 mM in experiment [13].
